Consider 9 compounds from PMC13128454, “Mutant p53 protein accumulation is selectively targetable by proximity-inducing drugs” (Nature Chemical Biology, 2025).

For assay [1], the system named is Calu-1 cells stably expressing Halo–p53-R273H (FL)–mCherry versus parental Calu-1 cells. Kind of assay: flow-cytometry growth competition. Format: cell-based. The settings on record: sheet S2E. Here is the method:
(§1) Cells with and without a fluorescent marker (for example, Halo–p53–mCherry) were mixed and the resulting solution was plated in six-well plates or 10-cm dishes at low density; compound was added at varying concentrations. After reaching confluence, cells were passaged and retreated with compound if needed. Otherwise, cells were trypsinized, washed and resuspended in complete growth medium in 96-well plates or tubes for flow cytometry. Untreated cell mixtures were used to establish gates separating the fluorophore^+/− populations. Analysis was conducted on a CytoFLEX LX flow cytometer.

Assay [2] deals with Halo–p53-R273H (FL)–mCherry 293T cells versus parental 293T cells. Kind of assay: flow-cytometry growth competition. In kind it is cell-based. Here is the method:
as §1

The test system of assay [3] is Halo–p53-Y220C ΔTAD–mCherry 293T cells versus parental 293T cells. Kind of assay: flow-cytometry growth competition. Format: cell-based. The conditions noted are these: for mCherry_percent: 8 days, untreated 39.76; for activity / difference in cell survival in competition: 8-day competition; for normalized_mCherry_percentage: Y220C, day 8, normalized to DMSO; for Viability competition, AVERAGE: average of 3 replicates; for IC50 / Emax: viability competition (sheet 5B); for Emax: lowest average of sheet 5A; for EC50: growth competition analyzed on day 10, n = 3, read-out: Competition EC50. Here is the method: as §1

For assay [4], the target named is T1, p53-Y220C–PLK1 ternary complex (Homo sapiens, UniProt P04637+P53350, M133L/N239Y/N268D/V203A/Y220C).
T1 construct: NLS–LgBiT–p53-Y220C (DBD) and mEGFP–PLK1–SmBiT; expressed in transfected cells; host or cells: 293T cells, transient cotransfection
Put plainly: NanoBiT ternary complex assay in cotransfected 293T cells. In kind it is cell-based. From the text: After 1 day, the cells were passaged into 384-well plates and treated with varying concentrations of compound.

For assay [5], the system named is cancer cell lines across DepMap. Set-up: method as in DepMap. The conditions noted are these: antiproliferative; PRISM OncRef; ref DepMap; read-out: median IC50 across DepMap; cited from earlier work.
The test system of the next assay is WEE1. Set-up: method as in PMID 19887545. The conditions noted are these: cell-free; read-out: IC50 for cell-free WEE1 inhibition; cited from earlier work.
Setting [6] is: 24 h, n = 4, read-out: NanoBiT EC50.

“And” between values parts separate entries of the source, which are not always exact repeats. Equal values may be shown once. Read-outs that look alike come from different tables or passages of the source.

As for `CC[C@@H]1C(=O)N(C)c2cnc(Nc3ccc(C(=O)NCCOCCOCCC(=O)NCCOCCOCCCCCCCl)cc3OC)nc2N1C1CCCC1` [HLDA-131], the mCherry_percent is 83.77% in assay [1] (1 nM), 55.02% in assay [1] (10 nM), 4.8% in assay [1] (100 nM) and 3.52% in assay [1] (1 uM).

The term EC50 denotes the concentration that produces a half-maximal response. Regarding `C=CCn1c(=O)c2cnc(Nc3ccc(N4CCN(C(=O)CCOCCOCCC(=O)NCCOCCOCCCCCCCl)CC4)cc3)nc2n1-c1cccc(C(C)(C)O)n1` [Halo-PEG2-adavosertib], the EC50 in assay [2] (Homo sapiens, HEK-293T, Halo–p53-R273H (FL)–mCherry 293T cells as printed, Extended Data Fig. 2f) amounted to 41 nM. In addition, the “selective inhibition of proliferation in competition assay” value in assay [2] (doses between 100 nM and 1 μM, cells as printed) is on record as “selectively inhibited the proliferation”. In addition, the values for the mCherry_percent in assay [3] (100 nM), in assay [3] (1 uM) and in assay [3] (10 uM) were 10.55%, 4.24% and 26.57%, respectively.

With `C=CC(=O)n1c2ccccc2c2cc(C(=O)NCc3cn(CCOCCOCCOCCOCCNC(=O)c4ccc(Nc5ncc6c(n5)N(C5CCCC5)[C@H](CC)C(=O)N6C)c(OC)c4)nn3)ccc21` [KG5-PEG4-BI2536], the “activity / difference in cell survival in competition” value (“activity / difference” for short) in assay [3] is “did not observe any difference in cell survival”. For the same compound, the normalized_mCherry_percentage stood at 98.99% in assay [3] (1 nM), 99.96% in assay [3] (10 nM), 100.2% in assay [3] (100 nM) and 99.83% in assay [3] (1 uM).

The term IC50 denotes the point on the concentration scale where inhibition reaches its midpoint. Consider `CC[C@@H]1C(=O)N(C)c2cnc(Nc3ccc(C(=O)NCCOCCOCCOCCOCCC(=O)N4CCC(Nc5cccc6c5cc(C#CCNc5ccc(S(C)(=O)=O)cc5OC)n6CC(F)(F)F)CC4)cc3OC)nc2N1C1CCCC1` [PEG4 (p53-01)], for which the “Viability competition, Replicate 1-3” value is 0.6959 and 0.6663 and 0.6621 in assay [3] (Concentration (nM) 10); 0.7132 and 0.7004 and 0.6708 in assay [3] (Concentration (nM) 100); 0.6679 and 0.6445 and 0.6361 in assay [3] (Concentration (nM) 500); 0.309 and 0.295 and 0.2813 in assay [3] (Concentration (nM) 1000); 0.1194 and 0.1119 and 0.1123 in assay [3] (Concentration (nM) 2000); 0.1698 and 0.1509 and 0.1508 in assay [3] (Concentration (nM) 5000). Moreover, the “Viability competition, AVERAGE” value in assay [3] (Concentration (nM) 10) worked out at 0.6748; in assay [3] (Concentration (nM) 100), 0.6948; in assay [3] (Concentration (nM) 500), 0.6495; in assay [3] (Concentration (nM) 1000) it was 0.2951; in assay [3] (Concentration (nM) 2000) it was 0.1145; in assay [3] (Concentration (nM) 5000), 0.1572. The IC50 in assay [3] worked out at 851 nM. The Emax in assay [3] came out at 0.1145.

For `CC[C@@H]1C(=O)N(C)c2cnc(Nc3ccc(C(=O)NCCC(=O)N4CCC(Nc5cccc6c5cc(C#CCNc5ccc(S(C)(=O)=O)cc5OC)n6CC(F)(F)F)CC4)cc3OC)nc2N1C1CCCC1` [PMV6-C3-BI2536], the “Viability competition, AVERAGE” value in assay [3] (Concentration (nM) 10) was 0.6993; in assay [3] (Concentration (nM) 100), 0.1737; in assay [3] (Concentration (nM) 500), 0.1322; in assay [3] (Concentration (nM) 1000) it was 0.1085; in assay [3] (Concentration (nM) 2000), 0.0794; in assay [3] (Concentration (nM) 5000), 0.1321. In addition, the “Viability competition, Replicate 1-3” value was 0.706 and 0.7024 and 0.6895 in assay [3] (Concentration (nM) 10, listed as C3); 0.1753 and 0.1712 and 0.1746 in assay [3] (Concentration (nM) 100, listed as C3); 0.1474 and 0.1221 and 0.127 in assay [3] (Concentration (nM) 500, listed as C3); 0.1425 and 0.0972 and 0.0859 in assay [3] (Concentration (nM) 1000, listed as C3); 0.0894 and 0.0623 and 0.0865 in assay [3] (Concentration (nM) 2000, listed as C3); 0.1277 and 0.1154 and 0.1531 in assay [3] (Concentration (nM) 5000, listed as C3). In assay [3] (day 10), the “potency versus p53-01 in the competition assay” value was “over 1.5 orders of magnitude”. In addition, the EC50 in assay [3] turned out to be 25 nM; in assay [4] (setting [6]), 410 nM; in assay [4] (sheet 5C, read-out: EC50) it was 406 nM. Further, the IC50 in assay [3] stood at 25.3 nM. In addition, the Emax in assay [3] is given as 0.0794. For the same compound, the “NanoBiT mean_norm” value in assay [4] (Concentration 19.5312) was determined as 1.06; in assay [4] (Concentration 39.0625), 1.117; in assay [4] (Concentration 78.125) it was 1.1621; in assay [4] (Concentration 156.25), 1.171; in assay [4] (Concentration 312.5), 1.264; in assay [4] (Concentration 625), 1.76. For the same compound, the “NanoBiT mean_norm” value in assay [4] (Concentration 1250) is 1.765; in assay [4] (Concentration 2500), 1.801; in assay [4] (Concentration 5000) it was 1.856; in assay [4] (Concentration 10000) it was 1.853. In assay [4] (sheet 5C), this compound yielded a Max_effect of 1.856.

As to `C=CCn1c(=O)c2cnc(Nc3ccc(N4CCN(C)CC4)cc3)nc2n1-c1cccc(C(C)(C)O)n1` [adavosertib], the values for the IC50 (in assay [5]; in the assay on WEE1) were 348 nM and 5.2 nM, respectively.

As to `O=C(/C=C\n1cnc(-c2cc(C(F)(F)F)cc(C(F)(F)F)c2)n1)NNc1cnccn1` [selinexor], the “activity / difference” value in assay [3] is “did not observe any activity”. Also, the normalized_mCherry_percentage in assay [3] (1 nM) was determined as 98.56%; in assay [3] (10 nM), 98.63%; in assay [3] (100 nM), 103.2%; in assay [3] (1 uM) it was 99.86%.

For AP1867-C8-BI2536, the “activity / difference” value in assay [3] was “did not observe any activity”. In addition, the normalized_mCherry_percentage in assay [3] (1 nM) amounted to 97.6%; in assay [3] (10 nM), 98.26%; in assay [3] (100 nM), 98.72%; in assay [3] (1 uM) it was 93.37%.

Turning to PEG6, the “Viability competition, Replicate 1-3” value in assay [3] (Concentration (nM) 10) was 0.5239 and 0.6471 and 0.659; in assay [3] (Concentration (nM) 100) it was 0.5384 and 0.6799 and 0.6767; in assay [3] (Concentration (nM) 500), 0.4819 and 0.6302 and 0.6328; in assay [3] (Concentration (nM) 1000), 0.2653 and 0.295 and 0.3011; in assay [3] (Concentration (nM) 2000), 0.064 and 0.0676 and 0.0785; in assay [3] (Concentration (nM) 5000), 0.1113 and 0.1194 and 0.102. Moreover, the “Viability competition, AVERAGE” value in assay [3] (Concentration (nM) 10) was determined as 0.61; in assay [3] (Concentration (nM) 100), 0.6317; in assay [3] (Concentration (nM) 500), 0.5816; in assay [3] (Concentration (nM) 1000), 0.2871; in assay [3] (Concentration (nM) 2000), 0.07003; in assay [3] (Concentration (nM) 5000) it was 0.1109. Besides, the EC50 in assay [3] was determined as 900 nM; in assay [4] (setting [6]), 3680 nM; in assay [4] (sheet 5C, read-out: EC50) it was 3680 nM. The half-inhibitory concentration (IC50) in assay [3] worked out at 899 nM. The Emax in assay [3] worked out at 0.07003. In addition, the “NanoBiT mean_norm” value in assay [4] (Concentration 19.5312) amounted to 1.005; in assay [4] (Concentration 39.0625), 0.9853; in assay [4] (Concentration 78.125), 1.029; in assay [4] (Concentration 156.25), 1.026; in assay [4] (Concentration 312.5), 1.029; in assay [4] (Concentration 625), 1.011. The “NanoBiT mean_norm” value in assay [4] (Concentration 1250) stood at 1.186; in assay [4] (Concentration 2500), 1.25; in assay [4] (Concentration 5000), 1.542; in assay [4] (Concentration 10000), 1.6853. In addition, the Max_effect in assay [4] (sheet 5C) stood at 1.6853.
